Reference: DBAASP
Values after ≈ are worked out from the molar mass of the structure shown. One block for each compound: values may come before it.

Columns and labels:
Assay in all cases: ≥ marks a high value that may be exact or a test limit, other limits are often not marked, values filed in µg/mL are converted to µM
[1] = tested on: Salmonella enterica subsp. enterica serovar Typhi CMCC 50071
[2] = tested on: Salmonella enterica subsp. enterica serovar Typhimurium C77-31
[3] = tested on: Salmonella enterica subsp. enterica serovar Typhimurium ATCC 14028
[4] = tested on: Escherichia coli UB1005
[5] = tested on: Salmonella enterica subsp. enterica serovar Pullorum C79-13
[6] = tested on: Staphylococcus aureus ATCC 25923
[7] = tested on: Staphylococcus epidermidis ATCC 12228
[8] = tested on: Staphylococcus aureus ATCC 29213
[9] = tested on: Staphylococcus aureus NCTC 9144
[10] = tested on: Klebsiella pneumoniae NCTC 13368
[11] = tested on: Acinetobacter baumannii ATCC 17987
[12] = tested on: Xanthomonas axonopodis pv. phaseoli
[13] = tested on: Enterococcus faecalis NCTC 12201
[14] = tested on: Enterococcus faecalis NCTC 12204
[15] = tested on: Staphylococcus aureus 15
[16] = tested on: Acinetobacter baumannii AYE
[17] = tested on: Enterococcus faecalis NCTC 775
[18] = tested on: Klebsiella pneumoniae M6
[19] = tested on: Pseudomonas aeruginosa PAO1
[20] = tested on: Escherichia coli NCTC 12923
[21] = tested on: Pseudomonas aeruginosa NCTC 13437
[22] = tested on: Pseudomonas syringae pv. tomato
[23] = tested on: Enterococcus faecalis
[24] = tested on: Pseudomonas aeruginosa KCTC 1637
[25] = tested on: Enterococcus faecalis VR
[26] = tested on: Enterococcus faecium VR
[27] = tested on: Staphylococcus aureus MR
[28] = tested on: Enterococcus faecium
[29] = tested on: Staphylococcus epidermidis KCTC 1917
[30] = tested on: Salmonella typhimurium KCTC 1926
[31] = tested on: Escherichia coli KCTC 1682
[32] = tested on: Bacillus subtilis KCTC 3068
[33] = tested on: Staphylococcus aureus KCTC 1621
[34] = tested on: Staphylococcus aureus ATCC 6538P
[35] = tested on: Escherichia coli JM109
[36] = tested on: Staphylococcus aureus
[37] = tested on: Bacillus subtilis ATCC 6633
[38] = tested on: Staphylococcus aureus ATCC 9144
[39] = tested on: Escherichia coli ATCC 10536
[40] = tested on: Escherichia coli DH5alpha

MIC [1]: ≥ 128 µM | MIC [2]: ≥ 64 µM | MIC [3]: 32 µM (≈ 52.2 µg/mL) | MIC [4]: 8 µM (≈ 13 µg/mL) | MIC [5]: 16 µM (≈ 26.1 µg/mL) | MIC [6]: 32 µM (≈ 52.2 µg/mL) | MIC [7]: 64 µM (≈ 104 µg/mL) | MIC [8]: 32 µM (≈ 52.2 µg/mL)
Structure (SMILES): NC(=O)CC[C@H](NC(=O)[C@H](Cc1c[nH]c2ccccc12)NC(=O)[C@H](CCCN=C(N)N)NC(=O)[C@H](CCCN=C(N)N)NC(=O)[C@@H]1CCCN1C(=O)[C@@H](N)Cc1ccccc1)C(=O)N[C@@H](Cc1c[nH]c2ccccc12)C(=O)N[C@@H](CCCN=C(N)N)C(=O)N[C@@H](CCCN=C(N)N)C(=O)N1CCC[C@H]1C(=O)N[C@@H](Cc1ccccc1)C(N)=O [FPRRWQWRRPF]

MIC [9]: ≥ 43.7 µM | MIC [10]: ≥ 43.7 µM | MIC [11]: 21.8 µM (≈ 64 µg/mL) | MIC [12]: 1.37 µM (≈ 4 µg/mL) | MIC [13]: ≥ 43.7 µM | MIC [14]: ≥ 43.7 µM | MIC [15]: ≥ 43.7 µM | MIC [16]: 10.9 µM (≈ 32 µg/mL) | MIC [17]: ≥ 43.7 µM | MIC [18]: ≥ 43.7 µM | MIC [19]: > 43.7 µM | MIC [20]: 21.8 µM (≈ 64 µg/mL) | MIC [21]: ≥ 43.7 µM | MIC [22]: 5.46 µM (≈ 16 µg/mL)
Structure (SMILES): CC[C@H](C)[C@H](NC(=O)[C@H](CCC(=O)O)NC(=O)[C@H](CC(N)=O)NC(=O)[C@H](CCCCN)NC(=O)[C@H](CC(C)C)NC(=O)[C@H](Cc1ccc(O)cc1)NC(=O)[C@H](CCC(N)=O)NC(=O)[C@H](CCCN=C(N)N)NC(=O)[C@@H](NC(=O)[C@@H](NC(=O)[C@H](CCC(=O)O)NC(=O)[C@H](CCCCN)NC(=O)CNC(=O)[C@H](C)N)[C@@H](C)O)[C@@H](C)CC)C(=O)N[C@@H](CCCCN)C(=O)N[C@@H](CCCCN)C(=O)N[C@@H](CCCCN)C(=O)NCC(=O)N[C@@H](CCCN=C(N)N)C(=O)N[C@@H](CCCCN)C(=O)N[C@@H](C)C(=O)N[C@H](C(=O)N[C@H](C(=O)N[C@@H](C)C(=O)N[C@@H](Cc1c[nH]c2ccccc12)C(=O)O)[C@@H](C)CC)C(C)C [AGKETIRQYLKNEIKKKGRKAVIAW]

MIC [23]: 30 µM (≈ 36 µg/mL) | MIC [24]: 7.5 µM (≈ 9 µg/mL) | MIC [25]: 30 µM (≈ 36 µg/mL) | MIC [26]: 30 µM (≈ 36 µg/mL) | MIC [27]: 15 µM (≈ 18 µg/mL) | MIC [28]: 30 µM (≈ 36 µg/mL) | MIC [29]: 7.5 µM (≈ 9 µg/mL) | MIC [30]: 7.5 µM (≈ 9 µg/mL) | MIC [31]: 30 µM (≈ 36 µg/mL) | MIC [32]: 15 µM (≈ 18 µg/mL) | MIC [33]: 15 µM (≈ 18 µg/mL)
Structure (SMILES): CC(C)C[C@H](NC(=O)[C@H](CS)NC(=O)[C@H](CCCCN)NC(=O)[C@H](C)NC(=O)[C@H](C)N)C(=O)N[C@H](C(=O)N[C@@H](CCC(N)=O)C(=O)N[C@@H](CCCN=C(N)N)C(=O)N[C@@H](CCCN=C(N)N)C(=O)N[C@@H](CCCN=C(N)N)C(N)=O)C(C)C [AAKCLVQRRR]

MIC [23]: 15 µM | MIC [24]: 15 µM | MIC [25]: 30 µM | MIC [26]: 15 µM | MIC [34]: 4.68 µM | MIC [35]: 15 µM | MIC [27]: 30 µM | MIC [28]: 15 µM | MIC [29]: 15 µM | MIC [30]: 15 µM | MIC [31]: 15 µM | MIC [32]: 7.5 µM | MIC [36]: > 60 µM | MIC [33]: 7.5 µM
Structure (SMILES): CC[C@H](C)[C@H](NC(=O)[C@H](C)NC(=O)[C@H](CC(C)C)NC(=O)[C@H](CS)NC(=O)[C@H](Cc1cnc[nH]1)NC(=O)[C@H](C)NC(=O)[C@H](C)N)C(=O)NCC(=O)N[C@@H](CCCN=C(N)N)C(=O)N[C@@H](CCCN=C(N)N)C(N)=O [AAHCLAIGRR]

MIC [37]: 5.8 µM (≈ 16.5 µg/mL) | MIC [38]: 5 µM (≈ 14.2 µg/mL) | MIC [39]: 4.7 µM (≈ 13.4 µg/mL) | MIC [40]: 4.8 µM (≈ 13.7 µg/mL)
Structure (SMILES): CC[C@H](C)[C@H](NC(=O)CNC(=O)CN)C(=O)N[C@@H](CC(C)C)C(=O)N[C@H](C(=O)N[C@@H](C)C(=O)N[C@@H](CCCCN)C(=O)N[C@@H](CC(C)C)C(=O)N[C@H](C(=O)N[C@H](C(=O)N[C@H](C(=O)N[C@@H](CC(C)C)C(=O)NCC(=O)N1CCC[C@H]1C(=O)N[C@@H](C)C(=O)N[C@@H](CC(C)C)C(=O)N[C@H](C(=O)N[C@@H](CO)C(=O)N[C@@H](Cc1c[nH]c2ccccc12)C(=O)N[C@H](C(=O)N[C@@H](CCCCN)C(=O)N[C@@H](CCCN=C(N)N)C(=O)N[C@@H](CCCCN)C(=O)N[C@@H](CCCN=C(N)N)C(=O)N[C@@H](CCC(N)=O)C(=O)N[C@@H](CCC(N)=O)C(N)=O)[C@@H](C)CC)[C@@H](C)CC)[C@@H](C)O)[C@@H](C)O)C(C)C)C(C)C [GGILVAKLVTTLGPALISWIKRKRQQ]

MIC [9]: ≥ 43.8 µM | MIC [10]: ≥ 43.8 µM | MIC [11]: 21.9 µM (≈ 64 µg/mL) | MIC [12]: 0.342 µM (≈ 1 µg/mL) | MIC [13]: ≥ 43.8 µM | MIC [14]: ≥ 43.8 µM | MIC [15]: ≥ 43.8 µM | MIC [16]: 21.9 µM (≈ 64 µg/mL) | MIC [17]: ≥ 43.8 µM | MIC [18]: ≥ 43.8 µM | MIC [19]: > 43.8 µM | MIC [20]: 11 µM (≈ 32 µg/mL) | MIC [21]: ≥ 43.8 µM | MIC [22]: 1.37 µM (≈ 4 µg/mL)
Structure (SMILES): CC[C@H](C)[C@H](NC(=O)[C@H](CCC(=O)O)NC(=O)[C@H](CC(N)=O)NC(=O)[C@H](CCCCN)NC(=O)[C@H](CC(C)C)NC(=O)[C@H](CCCCN)NC(=O)[C@H](CCCCN)NC(=O)[C@H](CCCN=C(N)N)NC(=O)[C@@H](NC(=O)[C@H](CCCCN)NC(=O)[C@H](CCC(=O)O)NC(=O)[C@H](CCCCN)NC(=O)CNC(=O)[C@H](C)N)[C@@H](C)CC)C(=O)N[C@@H](CCCCN)C(=O)N[C@@H](CCCCN)C(=O)N[C@@H](CCCCN)C(=O)NCC(=O)N[C@@H](CCCN=C(N)N)C(=O)N[C@@H](CCCCN)C(=O)N[C@@H](C)C(=O)N[C@H](C(=O)N[C@H](C(=O)N[C@@H](C)C(=O)N[C@@H](Cc1c[nH]c2ccccc12)C(=O)O)[C@@H](C)CC)C(C)C [AGKEKIRKKLKNEIKKKGRKAVIAW]

MIC [23]: 15 µM | MIC [24]: 7.5 µM | MIC [25]: 30 µM | MIC [26]: 3.8 µM | MIC [27]: 7.5 µM | MIC [28]: 7.5 µM | MIC [29]: 7.5 µM | MIC [30]: 7.5 µM | MIC [31]: 7.5 µM | MIC [32]: 7.5 µM | MIC [33]: 7.5 µM
Structure (SMILES): CC[C@H](C)[C@H](NC(=O)[C@H](C)NC(=O)[C@H](CC(C)C)NC(=O)[C@H](CS)NC(=O)[C@H](Cc1cnc[nH]1)NC(=O)[C@H](C)NC(=O)[C@H](C)N)C(=O)NCC(=O)N[C@@H](CCCN=C(N)N)C(=O)N[C@@H](CCCCN)C(N)=O [AAHCLAIGRK]
